Values belong to the molecule of their own block, whether it stands above or below them. Starred links: 1 amine or outer side, 2 acyl side, 3 side chain; linkers in the order of their positions; H or OH if unused. Positions of bridges follow the written chain, without caps; N, C: chain ends. Non-standard residues stand in square brackets, D forms with d. Residues, ends and D or L forms follow the SMILES beside them. Groups on a side chain read outwards from the residue. Primed or numbered codes have the meaning given here. *: point of attachment. Ala(piperidin-4-yl) = O=C([C@H](CC1CCN([*:3])CC1)N[*:1])[*:2]; DOTA = O=C(O)CN1CCN(CC(=O)O)CCN(CC(=O)*)CCN(CC(=O)O)CC1; Trp(5-F) = N[C@@H](Cc1c[nH]c2ccc(F)cc12)C(=O)O; PEG4′ = 4x 3-(2-aminoethoxy)propanoic acid; 1Nal = N[C@@H](Cc1cccc2ccccc12)C(=O)O; Ala(4-THP) = N[C@@H](CC1CCOCC1)C(=O)O; Val(3-OH) = CC(C)(O)[C@H](N)C(=O)O; PEG4 = NCCOCCOCCOCCOCCC(=O)O; Tle = CC(C)(C)[C@H](N)C(=O)O; hLeu = CC(C)CC[C@H](N)C(=O)O
Assays:
2Ig B7-H3 = molecular target: T1, 2Ig B7-H3 (Homo sapiens, UniProt Q5ZPR3); experiment: SPR binding affinity to 2Ig B7-H3; settings: 37° C.; read-out: 2Ig B7-H3_KD (nM) at 37° C.
T1 sequence (Q5ZPR3 29-316 isoform Q5ZPR3-2 limits assumed): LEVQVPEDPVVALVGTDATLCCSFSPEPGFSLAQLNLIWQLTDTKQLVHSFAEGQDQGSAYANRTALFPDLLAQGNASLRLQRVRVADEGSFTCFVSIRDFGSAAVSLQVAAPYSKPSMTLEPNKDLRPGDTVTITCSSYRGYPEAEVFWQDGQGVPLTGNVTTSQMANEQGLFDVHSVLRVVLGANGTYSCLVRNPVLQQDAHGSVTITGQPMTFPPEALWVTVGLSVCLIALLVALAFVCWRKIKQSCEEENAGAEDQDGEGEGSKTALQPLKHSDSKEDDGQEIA

Calu-6 cell line [1] = experiment: Cell associated (bound) fraction of [177Lu]Lu-labeled peptide in Calu-6 cells; assay type: cell-based, Human; settings: 1 hour, 37° C.
Method in brief: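 Peptide conjugate was labelled with [177Lu]LuCl3 in ammonium acetate pH ~5 at 80 °C for 17-20 min, with purity checked by RP-HPLC. Calu-6 suspensions (5 million cells/mL in 1% PBSA) were incubated with 0.8 μCi for 1 h at 37 °C. Cell pellets were gamma-counted after two cold PBS/BSA washes, giving the bound fraction against the unbound supernatant plus washes.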

Calu-6 cell line [2] = experiment: Net internalization of [177Lu]Lu-labeled peptide in Calu-6 cells; assay type: cell-based, Human; settings: 1 hour, 37° C., glycine pH 2.5 acid wash
Method in brief: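 Peptide conjugate labeled with [177Lu]LuCl3 at pH ~5, 80 °C, 17–20 min, and purity checked by RP-HPLC. B7-H3-expressing human Calu-6 lung cancer cells at 5 million cells/mL in 1% PBSA. Internalized fraction: counts left after two 3 min 50 mM glycine pH 2.5 washes and NaOH lysis, gamma counted against bound fraction.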

human 4lg B7-H3 = molecular target: T2, human 4lg B7-H3 (Homo sapiens, UniProt Q5ZPR3); experiment: Affinity determination by surface plasmon resonance (SPR) to 4Ig B7-H3; settings: SPR KD—37° C., 4Ig B7-H3; 37° C. flow cell temperature
T2 sequence (Q5ZPR3 29-534): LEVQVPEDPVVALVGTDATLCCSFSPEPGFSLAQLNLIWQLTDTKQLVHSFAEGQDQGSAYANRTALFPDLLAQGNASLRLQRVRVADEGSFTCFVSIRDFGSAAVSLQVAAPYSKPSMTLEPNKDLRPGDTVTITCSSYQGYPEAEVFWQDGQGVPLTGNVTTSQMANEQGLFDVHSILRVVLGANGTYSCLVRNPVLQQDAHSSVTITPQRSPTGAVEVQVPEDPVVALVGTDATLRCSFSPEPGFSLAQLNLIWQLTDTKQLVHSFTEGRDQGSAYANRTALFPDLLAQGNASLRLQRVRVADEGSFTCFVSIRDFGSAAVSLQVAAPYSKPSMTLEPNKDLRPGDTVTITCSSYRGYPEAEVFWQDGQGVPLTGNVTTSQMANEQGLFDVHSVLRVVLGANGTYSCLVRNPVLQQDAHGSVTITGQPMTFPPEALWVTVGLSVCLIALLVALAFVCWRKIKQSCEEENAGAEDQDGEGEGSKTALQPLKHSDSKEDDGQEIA

B7-H3 on Calu-6 cells = molecular target: T3, B7-H3 on Calu-6 cells (human, UniProt Q5ZPR3 29-534); experiment: 177Lu-labelled peptide on Calu-6 cells, % cell associated fraction; B = 25<%<=50
T3 construct: whole, on cells
T3 sequence (looked up): T2 sequence (Q5ZPR3 29-534)

- % cell associated fraction (B7-H3 on Calu-6 cells): 25 to 50%
B2: Cpd 259 (peptide)
peptide: Ac-[hLeu]YC[Tle]GK[Ala(4-THP)]DVYC[1Nal]FP[dK]([PEG4′-DOTA])-NH2
modifications: disulfide 3-11

- % cell associated fraction (B7-H3 on Calu-6 cells): 25 to 50%
B3: Cpd 179 (peptide)
peptide: Ac-[hLeu]YC[Tle]GKYDVYC[1Nal]FT[dK](DOTA)-NH2
modifications: disulfide 3-11
SMILES: CC(=O)N[C@@H](CCC(C)C)C(=O)N[C@@H](Cc1ccc(O)cc1)C(=O)N[C@H]1CSSC[C@@H](C(=O)N[C@@H](Cc2cccc3ccccc23)C(=O)N[C@@H](Cc2ccccc2)C(=O)N[C@H](C(=O)N[C@H](CCCCNC(=O)CN2CCN(CC(=O)O)CCN(CC(=O)O)CCN(CC(=O)O)CC2)C(N)=O)[C@@H](C)O)NC(=O)[C@H](Cc2ccc(O)cc2)NC(=O)[C@H](C(C)C)NC(=O)[C@H](CC(=O)O)NC(=O)[C@H](Cc2ccc(O)cc2)NC(=O)[C@H](CCCCN)NC(=O)CNC(=O)[C@H](C(C)(C)C)NC1=O

More lines, now with the values behind:

Molecule: CC(=O)N[C@@H](CCC(C)C)C(=O)N[C@@H](Cc1ccc(O)cc1)C(=O)N[C@H]1CSSC[C@@H](C(=O)N[C@@H](Cc2c[nH]c3ccc(F)cc23)C(=O)N[C@@H](Cc2ccccc2)C(=O)N[C@H](C(=O)N[C@H](CO)C(N)=O)C(C)(C)O)NC(=O)[C@H](Cc2ccc(O)cc2)NC(=O)[C@H](C(C)C)NC(=O)[C@H](CC(=O)O)NC(=O)[C@H](CC2CCN(C(=O)CCOCCOCCOCCOCCNC(=O)CN3CCN(CC(=O)O)CCN(CC(=O)O)CCN(CC(=O)O)CC3)CC2)NC(=O)[C@H](CCCCN)NC(=O)CNC(=O)[C@H](C(C)(C)C)NC1=O [compound 408, Ac-hLeu-Y-C-Tbg-G-K-Pip(PEG4-DOTA)Ala-D-V-Y-C-5FW-F-hydroxyVal-dSer-CONH2] (Ac-[hLeu]YC[Tle]GK[Ala(piperidin-4-yl)]([PEG4-DOTA])DVYC[Trp(5-F)]F[Val(3-OH)][dS]-NH2; disulfide 3-11)
- Kd (2Ig B7-H3): 920 nM
- % cell associated fraction (Calu-6 cell line [1]): C (%>50)
- % net internalization (Calu-6 cell line [2]): A (%≤25)
- Kd (human 4lg B7-H3): < 1 nM

B1: Cpd 282 (peptide)
peptide: Ac-[hLeu]YCVGK[Ala(4-THP)]DVYC[Trp(5-F)]FP[dK]([PEG4′-DOTA])-NH2
modifications: disulfide 3-11
- % cell associated fraction (B7-H3 on Calu-6 cells): 25 to 50%

B4: Cpd 288 (peptide)
peptide: Ac-[hLeu]YCVGK[Ala(4-THP)]DVYC[Trp(5-F)]FP[dK](DOTA)-OH
modifications: disulfide 3-11
SMILES: CC(=O)N[C@@H](CCC(C)C)C(=O)N[C@@H](Cc1ccc(O)cc1)C(=O)N[C@H]1CSSC[C@@H](C(=O)N[C@@H](Cc2c[nH]c3ccc(F)cc23)C(=O)N[C@@H](Cc2ccccc2)C(=O)N2CCC[C@H]2C(=O)N[C@H](CCCCNC(=O)CN2CCN(CC(=O)O)CCN(CC(=O)O)CCN(CC(=O)O)CC2)C(=O)O)NC(=O)[C@H](Cc2ccc(O)cc2)NC(=O)[C@H](C(C)C)NC(=O)[C@H](CC(=O)O)NC(=O)[C@H](CC2CCOCC2)NC(=O)[C@H](CCCCN)NC(=O)CNC(=O)[C@H](C(C)C)NC1=O
- % cell associated fraction (B7-H3 on Calu-6 cells): 25 to 50%
